This is an account of results in patent publication US20160002667A1, “PSEUDOMONAS EXOTOXINS FOR CANCER TREATMENT” (RUSH UNIVERSITY MEDICAL CENTER, priority 2013, published 2016).

One series deals with Rho, Rac, and Cdc42. The following applies: cited from earlier work.
The test system of series [1] is cancer cells that are resistant to its cytotoxicity. Kind of series: G1 cell cycle arrest in cancer cells resistant to ExoT cytotoxicity. The format is cell-based. As to conditions: all cancer cells examined that are resistant to ExoT cytotoxicity. From the text:
(v) Exotoxin T is also a potent anti-proliferative agent. […] This feature can be quite useful in combination therapy.

For a further series, the system named is B16 cells. Kind of series: Cell motility tracking by time-lapse video microscopy. It counts as cell-based. As to conditions: tracked over a 10 h period, versus GFP transfected cells. On the procedure: B16 cells were transfected with ExoT, the GAP or ADPRT domain mutants or GFP vector alone. Cells were observed by time-lapse video microscopy and tracked over a 10 h period using ImageJ (NIH). The mean track length during this time is shown. […] Importantly, ExoT could have an impact on reducing metastasis of cancer cells.

Series [2] has as its system 4T1 metastatic breast cancer cells. It counts as cell-based. As to conditions: cisplatin 50 uM, PI fluorescence. On the procedure:
The cell death stain propidium iodide (PI) was added and the cells were observed by time-lapse videomicroscopy. Cytotoxicity was determined by measuring the PI fluorescence intensity at each time point using ImageJ (NIH).
Cells were observed by time-lapse videomicroscopy in the presence of the cell death dye propidium iodide.

Another series deals with A375 melanoma cells. Kind of series: Proliferation by phase time-lapse videomicroscopy after transfection. It counts as cell-based.
The conditions of series [3]: synthetic substrate; cited from earlier work.
Series [4] has as its system A375 cells. It counts as cell-based. As to conditions: versus GAP domain alone, GAP/ADPRT double mutant or GFP alone. On the procedure:
B16 and A375 cells were transfected with either GFP-fused ExoT, GAP and/or ADPRT domain mutants or GFP vector alone. Cytotoxicty was determined by positive propidium iodide staining.
We also discovered that ExoT is effective in killing the melanoma cell lines B16 and A375. B16 cells shown here were transfected with either a GFP expressing vector or ExoT directly fused to GFP. Cells were imaged in the presence of the cell death dye propidium iodide and observed by time-lapse videomicroscopy.

The subject of another series is HeLa cells. Kind of series: Apoptosis and apoptotic compensatory proliferation signaling. It counts as cell-based. From the text:
It has long been postulated that dying cells induce compensatory proliferation in neighboring cells as a means to control homeostasis and maintain tissue integrity but the players and the mechanisms involved in the compensatory proliferation signaling have remained unknown.

Series [5] has as its system A375 cells. Kind of series: Mitotic events by time-lapse video microscopy after transfection. It counts as cell-based. As to conditions: vector alone ~33%. From the text: A375 cells were transfected with ExoT, the GAP or ADPRT domain mutants or GFP vector alone. Cells were observed by time-lapse video microscopy. The number of mitotic events per cells in each field of view was counted.

Series [6] has as its system various cancer cell lines. Kind of series: Propidium iodide time-lapse cytotoxicity / mean time to death in various cancer cell lines infected with P. aeruginosa expressing exotoxin. The following applies: listed cancer cell lines, FIG. 4. It counts as cell-based. On the procedure:
FIG. 4 is a table summarizing the effect of Pseudomonas exotoxins on various cancer cell lines. Pseudomonas exotoxins are able to kill a variety of cancer cell lines. Listed cell lines were infected with Pseudomonas aeruginosa expressing either ExoU, ExoS, or ExoT in the presence of the cell death dye propidium iodide and observed by time-lapse videomicroscopy. Based on PI staining analysis, the mean time to death was determined for each cell line. […] (ND: no death).
For example, ExoU kills 100% of highly metastatic breast cancer cell line 4T1 within 2-3 hours, as indicated by propidium iodide (PI) staining (red) in FIG. 1.

Regarding “R149K: ExoT with the invariant arginine of the GAP domain mutated to lysine”, the “GAP activity in vitro” value in the series on Rho, Rac, and Cdc42 is listed as “complete loss of GAP activity”.
ExoT: the cell cycle arrest entry in series [1] was “complete G1cell cycle arrest”. Further, the mean track length entry in the series on B16 cells was “significantly shorter track lengths”. In addition, in series [2], the “cytotoxicity compared with cisplatin” value was “more potent cytotoxicity than cisplatin”. Besides, the cell division result with A375 melanoma cells was “blocked cell division”. In series [3], the “ADPRT activity in vitro compared to ExoS” value is listed as 0.2%. Moreover, in the series on A375 cells [4], the “cytotoxicity (positive propidium iodide staining)” value was “significantly greater cytotoxicity”. In the series on HeLa cells (HeLa), the apoptosis result is on record as “induces potent apoptosis”. Further, the “formation of compensatory complexes and induction of proliferation in surrounding cells” value with HeLa cells (apoptotic HeLa cells) was “interferes with the ability of apoptotic HeLa cells to form compensatory complexes and induce proliferation in the surrounding cells”. The mitotic cells entry in the series on A375 cells [5] is listed as “complete block of mitotic cells”. Moreover, in series [6], the “speed of killing and potency (mean time to death by PI staining)” value was “less potent and unable to kill some cell lines”.
As for ExoS, the “cytotoxicity compared with cisplatin” value in series [2] was “more potent cytotoxicity than cisplatin”. Besides, in series [6], the “speed of killing and potency (mean time to death by PI staining)” value is “fastest killing and greatest potentcy”.
